# Experimental data as given in patent US8022051B2, “Composition for protection and improvement of skin, or reinforcing skin barrier function comprising phosphatidylserine” (Doosan Corporation, priority 2004, dated 2011).
# Columns and labels:
# fibroblasts = experiment: Expression level of pro-collagen and MMP-1 in fibroblasts (western blot); format: cell-based; details: 20 μM, FIG. 10
# Protocol: In order to examine a skin aging-suppressing efficacy of the phosphatidylserine of the invention, it was quantitatively measured the expression amounts of the pro-collagen and the matrix metalloproteinase (MMP). It was tried a protein-antibody reaction through an electrophoresis (western blot) as the quantitative method. The cultivation was performed in manners of irradiating the ultraviolet to the fibroblasts (a gift from Seoul National University, Korea) and otherwise. After that, it was treated with the phosphatidylserine (20 μM), the cell was collected to extract the protein parts. The extracted protein was dissolved in the sodium dodecyl sulfate (SDS) and then subject to the electrophoresis on the SDS-polyacrylamide gel. […] An amount of the protein was measured using the color.
# PPAR-a = biological target: T1, PPAR-a (Homo sapiens, UniProt Q07869); experiment: PPAR-a activation in HeLa cell line (PPRE-luciferase reporter); format: cell-based; details: 20 and 40 μM, eight hours; FIG. 7
# T1 construct: expressed in transfected cells; host or cells: HeLa (KCLB No. 10002)
# T1 sequence (Q07869 1-468): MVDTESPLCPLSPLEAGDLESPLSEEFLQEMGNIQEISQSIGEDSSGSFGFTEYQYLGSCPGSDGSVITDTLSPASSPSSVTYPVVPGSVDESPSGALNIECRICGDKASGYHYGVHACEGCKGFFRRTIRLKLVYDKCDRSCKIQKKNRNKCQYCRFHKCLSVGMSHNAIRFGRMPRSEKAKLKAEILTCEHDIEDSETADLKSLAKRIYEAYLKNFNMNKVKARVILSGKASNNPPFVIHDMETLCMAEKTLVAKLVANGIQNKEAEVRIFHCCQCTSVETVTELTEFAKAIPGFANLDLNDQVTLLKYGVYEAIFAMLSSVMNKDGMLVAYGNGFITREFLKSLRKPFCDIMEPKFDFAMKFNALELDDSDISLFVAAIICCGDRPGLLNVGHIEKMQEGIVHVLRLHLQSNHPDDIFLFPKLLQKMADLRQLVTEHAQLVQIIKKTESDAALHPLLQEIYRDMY
# Protocol: In order to examine a PPAR-a activating effect of the phosphatidylserine of the invention, a following experiment was performed. At this time, it was examined activities for the PPAR-a and PPAR-γ retained.
# First, a HeLa (Human epithelial carcinoma) (KCLB [Korean Cell Line Bank] No. 10002, Korea) was seeded to a 24-well plate in an amount of 2×10^4 cells/well and then cultured for a day. Next day, in order to perform a cell transfection, 200 ng of PPAR-a over-expression vector, 200 ng of PPRE (peculiar to PPAR-a)-luciferase reporter vector (Promega, USA), and 40 ng of renilla luciferase vector used as the control group in the cell (internal control, i.e., used to examine an transfection efficiency) were mixed in the OMEM (Gibco, USA) culture medium and subject to the transfection to the cell using the lipofectamin (Invitrogen, USA). After four hours, the culture medium was added to be 10% FBS and then cultured for one night. Next day, in order to measure an activity of PPAR-a, it was treated with 20 and 40 μM of phosphatidylserine and 400 μM of the clofibrate as the positive control group and then cultured for eight hours. An activity of the luciferase was measured with a luminometer using a dual luciferase assay system (Promega, USA). Also in case of PPAR-γ, the same process was performed to measure the activity. […]
substance,measurement,setting,value
phosphatidylserine,expression amount of MMP-1,fibroblasts,decreased
same,expression amount of pro-collagen,fibroblasts; with ultraviolet irradiation and otherwise,increased
same,activity of PPAR-a (luciferase),PPAR-a,activated
